# Assay results as given in ChEMBL document CHEMBL5291721, “A preclinical secondary pharmacology resource illuminates target-adverse drug reaction associations of marketed drugs” (Nat Commun, 2023).
# Key:
# [1] = target: T1, Alpha-2A adrenergic receptor (Homo sapiens, UniProt P08913); format: functional, cell-based
# T1 sequence (P08913 whole entry): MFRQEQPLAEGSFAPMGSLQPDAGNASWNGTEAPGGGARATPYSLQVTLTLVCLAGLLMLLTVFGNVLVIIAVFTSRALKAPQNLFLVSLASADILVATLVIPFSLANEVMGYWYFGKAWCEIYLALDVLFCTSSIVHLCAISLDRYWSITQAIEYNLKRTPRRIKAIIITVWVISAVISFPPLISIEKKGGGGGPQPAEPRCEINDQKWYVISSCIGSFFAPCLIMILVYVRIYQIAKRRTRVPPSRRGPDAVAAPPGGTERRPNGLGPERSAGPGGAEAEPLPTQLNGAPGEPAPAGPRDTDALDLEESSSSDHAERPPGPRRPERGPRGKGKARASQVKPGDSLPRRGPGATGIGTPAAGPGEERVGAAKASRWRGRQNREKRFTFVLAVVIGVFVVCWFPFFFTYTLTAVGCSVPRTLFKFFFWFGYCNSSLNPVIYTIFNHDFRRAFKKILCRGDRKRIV
# [2] = target: T1, Alpha-2A adrenergic receptor; format: functional, cell-based; remark: listed apart in the source
# Cannabinoid receptor 1 = Cannabinoid receptor 1 (Homo sapiens, UniProt P21554); format: functional, cell-based
# Chain of Cannabinoid receptor 1 (P21554 whole entry): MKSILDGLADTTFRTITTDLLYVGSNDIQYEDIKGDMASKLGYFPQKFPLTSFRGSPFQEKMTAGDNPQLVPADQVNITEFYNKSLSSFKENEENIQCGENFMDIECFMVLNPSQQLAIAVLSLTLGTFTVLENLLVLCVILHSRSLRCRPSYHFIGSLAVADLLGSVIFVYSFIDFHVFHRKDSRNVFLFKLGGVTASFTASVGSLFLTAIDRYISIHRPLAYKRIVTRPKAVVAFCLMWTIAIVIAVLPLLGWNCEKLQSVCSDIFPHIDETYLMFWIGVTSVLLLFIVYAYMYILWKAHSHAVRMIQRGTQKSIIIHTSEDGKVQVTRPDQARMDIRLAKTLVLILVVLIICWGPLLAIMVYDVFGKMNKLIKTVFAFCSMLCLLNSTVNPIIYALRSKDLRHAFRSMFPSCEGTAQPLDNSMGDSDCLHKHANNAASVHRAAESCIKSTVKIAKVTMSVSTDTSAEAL
# Glucocorticoid receptor = target: T2, Glucocorticoid receptor (Homo sapiens, UniProt P04150)
# T2 sequence (P04150 whole entry): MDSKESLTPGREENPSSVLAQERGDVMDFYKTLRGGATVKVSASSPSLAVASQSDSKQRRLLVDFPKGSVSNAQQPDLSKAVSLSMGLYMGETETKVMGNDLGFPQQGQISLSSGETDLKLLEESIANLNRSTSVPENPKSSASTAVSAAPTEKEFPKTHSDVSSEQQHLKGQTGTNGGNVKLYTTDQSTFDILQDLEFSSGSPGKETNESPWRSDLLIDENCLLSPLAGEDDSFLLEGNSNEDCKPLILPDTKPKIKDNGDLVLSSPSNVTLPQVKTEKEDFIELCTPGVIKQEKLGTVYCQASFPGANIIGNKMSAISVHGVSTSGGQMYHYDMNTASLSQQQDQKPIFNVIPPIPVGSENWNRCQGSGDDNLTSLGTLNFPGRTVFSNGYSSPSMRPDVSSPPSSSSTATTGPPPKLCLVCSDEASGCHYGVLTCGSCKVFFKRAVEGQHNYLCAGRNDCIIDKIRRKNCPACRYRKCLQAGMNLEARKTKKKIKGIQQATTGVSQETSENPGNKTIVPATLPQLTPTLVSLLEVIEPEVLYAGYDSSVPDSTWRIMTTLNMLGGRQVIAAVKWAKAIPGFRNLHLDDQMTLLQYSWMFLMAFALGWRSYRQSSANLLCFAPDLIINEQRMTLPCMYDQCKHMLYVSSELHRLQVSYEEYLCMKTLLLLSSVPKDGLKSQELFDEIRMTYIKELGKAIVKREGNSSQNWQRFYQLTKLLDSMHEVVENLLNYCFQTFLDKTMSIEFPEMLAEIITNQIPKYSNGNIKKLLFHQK
# Progesterone receptor = target: T3, Progesterone receptor (Homo sapiens, UniProt P06401); format: functional
# T3 sequence (P06401 whole entry): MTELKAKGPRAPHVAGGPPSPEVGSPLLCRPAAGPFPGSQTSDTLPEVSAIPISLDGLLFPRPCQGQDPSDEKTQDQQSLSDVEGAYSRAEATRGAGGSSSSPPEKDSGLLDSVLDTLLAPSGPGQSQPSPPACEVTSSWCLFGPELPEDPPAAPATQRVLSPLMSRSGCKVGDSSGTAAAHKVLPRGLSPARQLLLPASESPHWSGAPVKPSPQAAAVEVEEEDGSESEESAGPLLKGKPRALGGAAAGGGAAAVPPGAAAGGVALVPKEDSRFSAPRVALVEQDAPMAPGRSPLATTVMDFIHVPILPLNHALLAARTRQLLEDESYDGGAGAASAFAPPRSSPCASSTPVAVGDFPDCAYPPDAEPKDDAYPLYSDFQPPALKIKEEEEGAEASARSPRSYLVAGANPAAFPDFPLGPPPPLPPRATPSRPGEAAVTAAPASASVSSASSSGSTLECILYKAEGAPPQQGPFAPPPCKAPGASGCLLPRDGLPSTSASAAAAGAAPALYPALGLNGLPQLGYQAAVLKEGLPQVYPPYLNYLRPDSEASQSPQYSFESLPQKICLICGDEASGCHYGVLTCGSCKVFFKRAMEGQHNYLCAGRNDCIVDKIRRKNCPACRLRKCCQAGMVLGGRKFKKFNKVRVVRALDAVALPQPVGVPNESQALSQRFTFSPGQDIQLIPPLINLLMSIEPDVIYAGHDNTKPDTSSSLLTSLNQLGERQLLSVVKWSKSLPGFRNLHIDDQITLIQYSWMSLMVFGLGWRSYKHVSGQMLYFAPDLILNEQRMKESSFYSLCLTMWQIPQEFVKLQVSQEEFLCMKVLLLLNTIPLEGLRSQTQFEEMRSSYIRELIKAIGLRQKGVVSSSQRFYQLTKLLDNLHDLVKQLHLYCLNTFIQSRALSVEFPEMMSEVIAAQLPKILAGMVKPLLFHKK
# [3] = target: T4, Prostaglandin G/H synthase 1 (Rattus norvegicus, UniProt Q63921); format: functional
# T4 sequence (Q63921 whole entry): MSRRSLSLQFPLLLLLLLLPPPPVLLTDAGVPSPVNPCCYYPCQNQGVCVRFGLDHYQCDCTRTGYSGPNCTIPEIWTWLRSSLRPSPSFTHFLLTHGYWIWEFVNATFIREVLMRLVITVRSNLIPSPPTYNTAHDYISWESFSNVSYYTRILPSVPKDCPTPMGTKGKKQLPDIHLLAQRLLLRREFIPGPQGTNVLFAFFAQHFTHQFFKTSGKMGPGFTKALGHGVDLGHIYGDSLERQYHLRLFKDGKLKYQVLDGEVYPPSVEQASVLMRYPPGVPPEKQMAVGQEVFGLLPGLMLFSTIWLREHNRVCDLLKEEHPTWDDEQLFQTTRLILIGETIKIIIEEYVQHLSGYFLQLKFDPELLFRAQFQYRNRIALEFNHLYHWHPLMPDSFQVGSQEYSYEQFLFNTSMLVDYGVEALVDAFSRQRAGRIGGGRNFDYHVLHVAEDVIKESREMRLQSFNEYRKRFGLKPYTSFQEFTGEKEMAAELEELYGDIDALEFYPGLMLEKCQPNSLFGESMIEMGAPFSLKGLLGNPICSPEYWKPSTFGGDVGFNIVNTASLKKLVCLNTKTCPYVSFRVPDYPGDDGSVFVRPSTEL
# Further: assay procedure not described here.
SMILES,AC50 [1] [µM],AC50 [2] [µM],AC50 (Cannabinoid receptor 1) [µM],AC50 (Glucocorticoid receptor) [µM],AC50 (Progesterone receptor) [µM],AC50 [3] [µM]
CCN(CC)CCOC(=O)c1ccc(N)cc1Cl [CHLOROPROCAINE],> 30,> 30,> 30,> 30,> 30,> 30
CCC(C)(Oc1ccc(C2(c3ccc(OC(C)(CC)C(=O)O)cc3)CCCCC2)cc1)C(=O)O (stereo not drawn) [CLINOFIBRATE],> 30,> 30,> 30,> 30,> 30,> 30
CCCCC[C@H](O)/C=C/[C@H]1[C@H](O)CC(=O)[C@@H]1C/C=C\CCCC(=O)O [DINOPROSTONE],> 30,> 30,> 30,> 30,4.5,15
CCCN(CC)C(CC)C(=O)Nc1c(C)cccc1C (stereo not drawn) [ETIDOCAINE],> 30,> 30,> 30,> 30,> 30,> 30
Clc1ccc(C(Cn2ccnc2)OCc2ccc(Sc3ccccc3)cc2)c(Cl)c1 (stereo not drawn) [FENTICONAZOLE],> 30,> 30,> 30,> 30,25,30
O=C(O)c1ccccc1OP(=O)(O)O [FOSFOSAL],> 30,> 30,> 30,> 30,> 30,> 30
Nc1ccn([C@@H]2O[C@H](CO)[C@@H](O)C2(F)F)c(=O)n1 [GEMCITABINE],> 10,> 10,> 30,> 30,> 30,> 30
CCCCCCOC(=O)CCC(=O)CN [HEXAMINOLEVULINATE],> 30,> 30,> 30,> 30,> 30,9.4
CC1(C)C(/C=C/C=C/C=C/C=C2\N(CCCCS(=O)(=O)O)c3ccc4ccccc4c3C2(C)C)=[N+](CCCCS(=O)(=O)[O-])c2ccc3ccccc3c21 [INDOCYANINE GREEN ACID FORM],> 30,> 30,9.3,> 30,3.4,21
Nc1nc2c(c(=O)[nH]1)N(C=O)C(CNc1ccc(C(=O)N[C@@H](CCC(=O)O)C(=O)O)cc1)CN2 (stereo partly drawn) [LEUCOVORIN],> 30,> 30,> 30,> 30,> 30,> 30
CCCC[C@H](C)C[C@H](O)/C=C/[C@H]1[C@H](O)CC(=O)[C@@H]1CCCC/C=C/C(=O)O [LIMAPROST],> 30,> 30,> 30,> 30,> 30,> 30
Cc1ccc(NC(=O)C2(c3ccc4c(c3)OC(F)(F)O4)CC2)nc1-c1cccc(C(=O)O)c1 [LUMACAFTOR],> 30,> 30,> 30,> 30,> 30,> 30
CC(C)OC(=O)C(C(=O)OC(C)C)=C1SC=CS1 [MALOTILATE],> 30,> 30,> 30,> 30,> 30,> 30
CC(=O)Nc1c(I)c(C(=O)N[C@H]2C(O)O[C@H](CO)[C@@H](O)[C@@H]2O)c(I)c(N(C)C(C)=O)c1I (stereo partly drawn) [METRIZAMIDE],> 10,> 10,> 30,> 10,> 10,> 10
CCOC(=O)Nc1ccc2c(c1)N(C(=O)CCN1CCOCC1)c1ccccc1S2 [MORICIZINE],> 30,> 30,> 30,> 30,> 30,> 30
CCn1cc(C(=O)O)c(=O)c2cc(F)c(N3CCN(C)CC3)cc21 [PEFLOXACIN],> 30,> 30,> 30,> 30,> 30,> 30
CC[N+]1(C)CCCC(OC(=O)C(O)(c2ccccc2)c2ccccc2)C1 (stereo not drawn) [PIPENZOLATE],> 30,> 30,> 30,> 30,> 30,> 30
CCCNC(C)C(=O)Nc1ccccc1C (stereo not drawn) [PRILOCAINE],> 30,> 30,> 30,> 30,3.9,> 30
NC(=O)CCC/N=C(\c1ccc(Cl)cc1)c1cc(F)ccc1O [PROGABIDE],> 10,> 10,> 30,> 10,> 10,> 10
CCCOC(C(=O)OC1CCN(C)CC1)(c1ccccc1)c1ccccc1 [PROPIVERINE],> 30,> 30,> 30,> 30,> 30,> 30
Cc1ccc2c(-c3ccccc3)nc(=O)n(C(C)C)c2c1 [PROQUAZONE],> 30,28,> 30,> 30,> 30,0.2
CN1CCN(c2c(F)cc3c(=O)c(C(=O)O)cn4c3c2SCC4)CC1 [RUFLOXACIN],> 30,> 30,> 30,> 30,> 30,> 30
[H]/N=C(/N)N[C@H]1[C@H](O)[C@@H](O)[C@H](O[C@@H]2O[C@@H](C)[C@](O)(C=O)[C@H]2O[C@@H]2O[C@@H](CO)[C@H](O)[C@@H](O)[C@@H]2NC)[C@@H](N/C(N)=N\[H])[C@@H]1O [STREPTOMYCIN],> 30,> 30,> 30,> 30,> 30,> 30
